US20210269447A1, “NOVEL AMINO-IMIDAZOPYRIMIDINE DERIVATIVES AS JANUS KINASE INHIBITORS AND PHARMACEUTICAL USE THEREOF” (LEO Pharma A/S, priority 2018, published 2021)

Legend:
[1] = target: T1, Human baculovirus-expressed Janus kinase (JAK) 2 (Homo sapiens, UniProt O60674); assay: JAK2 kinase assay (HTRF); format: biochemical; conditions: catalytic domain, ATP at Km (4 μM), 20 min
T1 construct: All four purified enzymes contain only the catalytic domain; His-tag (N); purchased Carna Biosciences, Inc 08-045; host or cells: baculovirus expression system
Procedure: (§1) Human baculovirus-expressed Janus kinase (JAK) 1, 2, 3 and tyrosin kinase (TYK) 2 were purchased from Carna Biosciences, Inc (#08-144, -045, -046, -147 resp.). All four purified enzymes contain only the catalytic domain. JAK1 (aa 850-1154) and TYK2 (aa 871-1187) are expressed with an N-terminally fused GST-tag, and JAK2 and JAK3 with an N-terminally fused His-tag. Inhibition of phosphorylation of a synthetic peptide was measured in an HTRF-based assay (CisBio #62TKOPEC). First, 75 nL of test compound solution (100% DMSO) was added to a white shallow 384-well plate (NUNC #264706) using a Labcyte ECHO 550 liquid handler. Thereafter, 1 μL of compound dilution buffer (50 mM HEPES, 0.05% bovine serum albumin) and 2 μL of TK solution (TK substrate-biotin in kinase buffer [1× enzymatic buffer from HTRFKinEASE TK kit, 1 mM DTT]) was added. Then, 5 μL kinase-ATP mix (prepared in kinase buffer) was added to the wells and the plates were incubated at RT for 20 (JAK2, 3 and TYK2) to 40 (JAK1) min. For all four kinases a concentration of ATP that corresponded to the Km for ATP was used. The final concentrations of buffers, substrate, kinase and ATP were: JAK1: 50 mM Hepes buffer pH 7.0, 0.01% BSA, 10 mM MgCl2, 1 mM DTT, 7 μM ATP, 50 nM SEB, 1 μM TK Substrate-Biotin and 5 ng JAK1; JAK2: 50 mM Hepes buffer pH 7.0, 0.01% BSA, 5 mM MgCl2, 1 mM DTT, 4 μM ATP, 1 μM TK Substrate-Biotin and 0.1 ng JAK2; JAK3: 50 mM Hepes buffer pH 7.0, 0.01% BSA, 5 mM MgCl2, 1 mM DTT, 2 μM ATP, 1 μM TK Substrate-Biotin and 0.3 ng JAK3; TYK2: 50 mM Hepes buffer pH 7.0, 0.01% BSA, 5 mM MgCl2, 1 mM DTT, 13 μM ATP, 50 nM SEB, 1 μM TK Substrate-Biotin and 0.8 ng TYK2. […] A PerkinElmer Envision reader was used to quantify the HTRF signal using the following filters; 320 nm excitation filter, 665 nm emission filter and a 615 nm 2nd emission filter. A ratio ((665/615)×104) was calculated for each well.

[2] = target: T2, Human baculovirus-expressed Janus kinase (JAK) 1 (Homo sapiens, UniProt P23458); assay: JAK1 kinase assay (HTRF); format: biochemical; conditions: catalytic domain, ATP at Km (7 μM), 40 min
T2 construct: JAK1 (aa 850-1154) and TYK2 (aa 871-1187) are expressed with an N-terminally fused GST-tag; GST (N); purchased Carna Biosciences, Inc 08-144; host or cells: baculovirus expression system
Procedure: as §1

STAT5 irfi-bla TF1 cells = assay: STAT5 Assay; format: cell-based; conditions: TF-1; stimulated with recombinant human erythropoietin (EPO) 10 ng/mL; beta-lactamase reporter
Procedure: Twenty-five μL of a STAT5 irfi-bla TF1 (Invitrogen #K1219) cell suspension was seeded with a density of about 10,000 cells/well in 384-well Black View-plates (PerkinElmer #6007460) with clear bottom in assay medium (Opti-MEM (Invitrogen #11058-021)+0.5% heat inactivated fetal bovine Serum (Invitrogen #10082-147)+1% non-essential amino acids (Invitrogen #11140-050)+1% sodium pyruvate (Invitrogen #11360-070)+1% penicillin/streptomycin (Invitrogen #15140-122)). The cell plates were incubated overnight in a humidified 37° C. air/CO2 (95%/5%) incubator. The following day, 125 nL of solutions of test compounds and reference compounds were transferred to cell plates using the Labcyte Echo 550 liquid handler. The plates were then incubated for 1 h in a humidified 37° C. air/CO2 (95%/5%) incubator. Hereafter recombinant human erythropoietin (EPO) (Invitrogen #PHC9634) was added to the plates also using the Labcyte Echo 550 to a final concentration of 10 ng/mL. The cells were then incubated for 4½-5 h in a humidified 37° C. air/CO2 (95%/5%) incubator. 8 μL of LiveBLAzer substrate mixture (Invitrogen #K1095) were then added to the assay plates, which were then incubated overnight at RT. Fluorescence was then measured: Excitation: 405 nm; Emission: 460 nm (green channel), Emission: 535 nm (blue channel). Background was subtracted in both emission channels and the ratio 460/535 nm was calculated for each well.

[3] = target: T3, Human baculovirus-expressed Janus kinase (JAK) 3 (Homo sapiens, UniProt P52333); assay: JAK3 kinase assay (HTRF); format: biochemical; conditions: catalytic domain, ATP at Km (2 μM), 20 min
T3 construct: All four purified enzymes contain only the catalytic domain; His-tag (N); purchased Carna Biosciences, Inc 08-046; host or cells: baculovirus expression system
Procedure: as §1

STAT6 bla-RA1 cells = assay: STAT6 Assay; format: cell-based; conditions: stimulated with recombinant human interleukin 4 10 ng/mL; CD40 ligand; beta-lactamase reporter
Procedure: Twenty-five μL of a STAT6 bla-RA1 (Invitrogen #K1243) cell suspension was seeded with a density of 30-40,000 cells/well in 384-well Black View-plates (PerkinElmer #6007460) with clear bottom in assay medium (Opti-MEM (Invitrogen #11058-021)+0.5% heat inactivated fetal bovine Serum (Invitrogen #10082-147)+1% non-essential amino acids (Invitrogen #11140-050)+1% sodium pyruvate (Invitrogen #11360-070)+1% penicillin/streptomycin (Invitrogen #15140-122)); containing 550 ng/mL of CD40 ligand (Invitrogen #PHP0025). The cell plates were incubated overnight in a humidified 37° C. air/CO2 (95%/5%) incubator. The following day, 125 nL of solutions of test compounds and reference compounds were transferred to cell plates using the Labcyte Echo 550 liquid handler. The plates were then incubated for 1 h in a humidified 37° C. air/CO2 (95%/5%) incubator. Hereafter recombinant human interleukin 4 (Invitrogen #PHC0045) were added to the plates also using the Labcyte Echo 550 to a final concentration of 10 ng/mL. The cells were then incubated for 4½-5 h in a humidified 37° C. air/CO2 (95/b/5%) incubator. 8 μL of LiveBLAzer substrate mixture (Invitrogen #K1095) were then added to the assay plates, which were incubated overnight at RT. Fluorescence was then measured: Excitation: 405 nm; Emission: 460 nm (green channel), Emission: 535 nm (blue channel). Background was subtracted in both emission channels and the ratio 460/535 nm was calculated for each well.

[4] = target: T4, Human baculovirus-expressed tyrosin kinase (TYK) 2 (Homo sapiens, UniProt P29597); assay: TYK2 kinase assay (HTRF); format: biochemical; conditions: catalytic domain, ATP at Km (13 μM), 20 min
T4 construct: JAK1 (aa 850-1154) and TYK2 (aa 871-1187) are expressed with an N-terminally fused GST-tag; GST (N); purchased Carna Biosciences, Inc 08-147; host or cells: baculovirus expression system
T4 sequence (P29597 871-1187): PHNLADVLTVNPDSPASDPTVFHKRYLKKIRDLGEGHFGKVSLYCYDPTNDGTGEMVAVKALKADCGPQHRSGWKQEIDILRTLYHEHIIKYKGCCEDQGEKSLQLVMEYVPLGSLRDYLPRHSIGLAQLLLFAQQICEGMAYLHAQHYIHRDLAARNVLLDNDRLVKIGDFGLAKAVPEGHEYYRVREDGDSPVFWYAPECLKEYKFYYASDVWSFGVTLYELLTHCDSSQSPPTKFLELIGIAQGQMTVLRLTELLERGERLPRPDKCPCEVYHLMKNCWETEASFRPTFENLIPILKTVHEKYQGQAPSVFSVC
Procedure: as §1

T2 sequence (P23458 850-1154): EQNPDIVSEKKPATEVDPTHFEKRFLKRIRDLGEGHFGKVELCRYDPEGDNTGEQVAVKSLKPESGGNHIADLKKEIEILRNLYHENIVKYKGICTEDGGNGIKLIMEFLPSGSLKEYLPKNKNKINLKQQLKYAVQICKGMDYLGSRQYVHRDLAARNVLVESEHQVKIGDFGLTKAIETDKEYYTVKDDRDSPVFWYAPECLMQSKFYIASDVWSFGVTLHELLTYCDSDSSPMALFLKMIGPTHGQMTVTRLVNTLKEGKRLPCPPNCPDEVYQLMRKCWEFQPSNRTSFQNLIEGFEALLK
T3 sequence (P52333 822-1111 limits assumed): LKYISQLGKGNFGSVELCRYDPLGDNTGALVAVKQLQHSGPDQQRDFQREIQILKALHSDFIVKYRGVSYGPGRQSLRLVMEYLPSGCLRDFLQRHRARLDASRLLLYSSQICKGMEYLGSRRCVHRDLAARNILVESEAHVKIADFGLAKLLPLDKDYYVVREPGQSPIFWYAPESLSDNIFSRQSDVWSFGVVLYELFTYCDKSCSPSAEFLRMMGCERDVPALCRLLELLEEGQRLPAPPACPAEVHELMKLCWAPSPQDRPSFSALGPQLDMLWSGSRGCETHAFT
T1 sequence (O60674 849-1124 limits assumed): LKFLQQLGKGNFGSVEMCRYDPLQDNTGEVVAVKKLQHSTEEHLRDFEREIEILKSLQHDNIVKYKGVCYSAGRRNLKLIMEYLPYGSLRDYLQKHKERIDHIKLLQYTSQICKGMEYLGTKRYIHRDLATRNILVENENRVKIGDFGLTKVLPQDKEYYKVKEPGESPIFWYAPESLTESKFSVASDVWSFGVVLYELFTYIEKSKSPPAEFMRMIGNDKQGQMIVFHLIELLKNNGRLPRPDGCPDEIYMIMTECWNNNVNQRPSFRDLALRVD

SMILES | EC50 [1] | EC50 [2] | EC50 (STAT5 irfi-bla TF1 cells) | EC50 [3] | EC50 (STAT6 bla-RA1 cells) | EC50 [4]
CNc1ncc2nc(C(C)O)n([C@H]3CC[C@H](CC#N)CC3)c2n1 (mixture of isomers) [Compound 2, 2-[trans-4-[8-(1-Hydroxyethyl)-2-(methylamino)purin-9-yl]cyclohexyl]acetonitrile] | 274 nM | 9 nM | 12.8 µM | 798 nM | 213 nM | 47 nM
[2H]C([2H])([2H])Nc1ncc2nc([C@@H](C)O)n([C@H]3CC[C@H](CC#N)CC3)c2n1 [Compound 3, 2-[trans-4-[8-[(1R)-1-Hydroxyethyl]-2-(trideuteriomethylamino)purin-9-yl]cyclohexyl]acetonitrile] | 129 nM | 3 nM | 4.87 µM | 510 nM | 142 nM | 13 nM
CNc1ncc2nc([C@@H](C)O)n([C@H]3CC[C@H](CC#N)CC3)c2n1 [Compound 1, 2-[trans-4-[8-[(1R)-1-Hydroxyethyl]-2-(methylamino)purin-9-yl]cyclohexyl]acetonitrile] | 157 nM | 5 nM | 5.19 µM | 602 nM | 146 nM | 19 nM
